Target: hNaV1.7 (Homo sapiens (Human), UniProt Q15858)
Test: Competitive binding of tritiated compound to membranes from cells expressing hNav1.7 and the β1 subunit
Settings: 100 pM [3H]compound, 18 h, room temperature; read-out: NaV1.7 395 Membrane Binding IC50
Experimental: Tritiated compound binding to membranes isolated from cells that heterologously express hNav1.7 and the β1 subunit
Preparation of membranes containing recombinantly expressed sodium channels: Frozen recombinant cell pellets were thawed on ice and diluted to 4 times the cell pellet weight with ice cold 50 mM Tris HCl, pH 7.4 buffer. The cell suspensions were homogenized on ice using a motorized glass dounce homogeniser. Homogenates were further diluted 8.4 times with ice cold 50 mM Tris HCl, pH 7.4 buffer and then centrifuged at 200×g at 4° C. for 15 min. The supernatants were collected and centrifuged at 10000×g at 4° C. for 50 min. The pellets were then re-suspended in 100 mM NaCl, 20 mM Tris HCl, pH 7.4 buffer containing 1% v/v protease inhibitors (Calbiochem) and re-homogenized on ice. The homogenized membranes were then processed through a syringe equipped with a 26 gauge needle. Protein concentrations were determined by Bradford Assay and the membranes were stored at −80° C.
Radioligand Binding Studies: Saturation experiments. A representative compound of formula (I) was tritiated. Three tritiums were incorporated in place of methyl hydrogens to generate [^3H]compound. Binding of this radioligand was performed in 5 mL borosilicate glass test tubes at room temperature. Binding was initiated by adding membranes to increasing concentrations of [^3H]compound in 100 mM NaCl, 20 mM Tris HCl, pH 7.4 buffer containing 0.01% w/v bovine serum albumin (BSA) for 18 h. Non-specific binding was determined in the presence of 1 μM unlabelled compound. After 18 h, the reactants were filtered through GF/C glass fiber filters presoaked in 0.5% w/v polyethylene imine. Filters were washed with 15 mL ice cold 100 mM NaCl, 20 mM Tris HCl, pH 7.4 buffer containing 0.25% BSA to separate bound from free ligand. [^3H]compound bound to filters was quantified by liquid scintillation counting.
Competitive binding experiments. Binding reactions were performed in 96-well polypropylene plates at room temperature for 18 h. In 360 μL, membranes were incubated with 100 pM [^3H]compound and increasing concentrations of Test Compound. Non-specific binding was defined in the presence of 1 μM unlabelled compound. Reactions were transferred and filtered through 96-well glass fiber/C filter plates presoaked with 0.5% polyethylene imine. The filtered reactions were washed 5 times with 200 μL ice cold buffer containing 0.25% BSA. Bound radioactivity was determined by liquid scintillation counting.
Data Analysis: For saturation experiments, non-specific binding was subtracted from total binding to provide specific binding and these values were recalculated in terms of pmol ligand bound per mg protein. Saturation curves were constructed and dissociation constants were calculated using the single site ligand binding model: Beq=(Bmax*X)/(X+Kd), where Beq is the amount of ligand bound at equilibrium, Bmax is the maximum receptor density, Kd is the dissociation constant for the ligand, and X is the free ligand concentration. For competition studies percent inhibition was determined and IC50 values were calculated using a 4 parameter logistic model (% inhibition=(A+((B−A)/(1+((x/C)^D)))) using XLfit, where A and B are the maximal and minimum inhibition respectively, C is the IC50 concentration and D is the (Hill) slope.

hNaV1.7, sequence (Q15858 whole entry, looked up): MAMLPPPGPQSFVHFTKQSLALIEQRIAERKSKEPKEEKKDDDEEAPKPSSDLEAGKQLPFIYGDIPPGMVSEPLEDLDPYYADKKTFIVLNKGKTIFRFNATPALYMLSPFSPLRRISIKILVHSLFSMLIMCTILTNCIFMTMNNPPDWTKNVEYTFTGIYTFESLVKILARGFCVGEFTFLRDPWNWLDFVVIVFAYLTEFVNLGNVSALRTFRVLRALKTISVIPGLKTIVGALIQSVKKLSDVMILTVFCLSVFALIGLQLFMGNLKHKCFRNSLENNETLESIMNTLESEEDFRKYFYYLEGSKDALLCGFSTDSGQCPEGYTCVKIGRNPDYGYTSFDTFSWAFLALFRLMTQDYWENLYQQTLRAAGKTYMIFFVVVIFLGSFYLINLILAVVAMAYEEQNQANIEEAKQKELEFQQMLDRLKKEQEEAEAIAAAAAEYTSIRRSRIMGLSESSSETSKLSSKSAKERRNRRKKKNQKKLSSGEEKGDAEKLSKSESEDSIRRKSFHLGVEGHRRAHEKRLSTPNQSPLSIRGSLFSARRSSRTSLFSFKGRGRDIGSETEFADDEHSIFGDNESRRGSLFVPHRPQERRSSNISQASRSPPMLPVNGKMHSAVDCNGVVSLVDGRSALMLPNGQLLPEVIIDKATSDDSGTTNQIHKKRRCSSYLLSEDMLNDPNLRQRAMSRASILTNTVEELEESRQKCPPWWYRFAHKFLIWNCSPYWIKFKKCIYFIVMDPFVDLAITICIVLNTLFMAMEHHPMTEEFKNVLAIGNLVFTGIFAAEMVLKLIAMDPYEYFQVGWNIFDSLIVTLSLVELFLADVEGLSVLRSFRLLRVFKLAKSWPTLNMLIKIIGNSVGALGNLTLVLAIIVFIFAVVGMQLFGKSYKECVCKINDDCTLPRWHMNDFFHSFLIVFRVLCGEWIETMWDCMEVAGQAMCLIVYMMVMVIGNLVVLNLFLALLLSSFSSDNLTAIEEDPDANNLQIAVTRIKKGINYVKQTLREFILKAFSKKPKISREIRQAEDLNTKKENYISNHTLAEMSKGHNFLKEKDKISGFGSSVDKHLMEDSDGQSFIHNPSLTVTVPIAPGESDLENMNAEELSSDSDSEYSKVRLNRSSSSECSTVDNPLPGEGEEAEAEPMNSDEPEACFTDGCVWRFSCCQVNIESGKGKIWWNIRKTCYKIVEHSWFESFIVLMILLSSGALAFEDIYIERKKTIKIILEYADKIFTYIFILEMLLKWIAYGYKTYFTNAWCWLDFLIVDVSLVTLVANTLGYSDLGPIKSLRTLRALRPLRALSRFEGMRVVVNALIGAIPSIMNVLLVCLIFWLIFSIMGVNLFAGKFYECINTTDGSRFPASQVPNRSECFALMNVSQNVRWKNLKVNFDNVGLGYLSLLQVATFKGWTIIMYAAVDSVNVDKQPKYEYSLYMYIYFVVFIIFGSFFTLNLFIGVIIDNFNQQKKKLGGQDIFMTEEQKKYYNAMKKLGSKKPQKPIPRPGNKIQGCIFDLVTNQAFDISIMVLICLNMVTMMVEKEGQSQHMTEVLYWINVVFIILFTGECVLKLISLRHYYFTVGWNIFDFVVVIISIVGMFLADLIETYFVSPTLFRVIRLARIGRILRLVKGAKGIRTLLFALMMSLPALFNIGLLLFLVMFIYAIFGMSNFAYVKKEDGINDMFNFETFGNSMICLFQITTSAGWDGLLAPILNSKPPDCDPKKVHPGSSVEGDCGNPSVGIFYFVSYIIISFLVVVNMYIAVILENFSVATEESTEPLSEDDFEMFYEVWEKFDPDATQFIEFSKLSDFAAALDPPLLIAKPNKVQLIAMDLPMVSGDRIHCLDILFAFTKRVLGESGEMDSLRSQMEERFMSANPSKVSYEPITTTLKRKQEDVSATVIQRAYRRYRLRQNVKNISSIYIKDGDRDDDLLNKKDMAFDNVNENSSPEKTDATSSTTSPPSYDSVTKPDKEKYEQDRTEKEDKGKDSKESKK
hNaV1.7, sequence (Q07699 whole entry partner, looked up): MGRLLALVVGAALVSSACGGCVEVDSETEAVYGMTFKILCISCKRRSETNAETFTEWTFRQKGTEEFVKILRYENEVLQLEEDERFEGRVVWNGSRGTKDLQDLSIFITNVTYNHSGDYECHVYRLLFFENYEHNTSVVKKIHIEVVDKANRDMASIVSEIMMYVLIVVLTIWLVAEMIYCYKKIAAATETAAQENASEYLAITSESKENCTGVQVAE

SMILES | IC50
CNS(=O)(=O)NC(=O)c1cc(Cl)c(Oc2cnc(OCC(F)(F)C(F)F)c(Cl)c2)cc1F [Preparation 33, 5-chloro-4-((5-chloro-6-(2,2,3,3-tetrafluoro-propoxy)pyridin-3-yl)oxy)-2-fluoro-N-(N-methylsulfamoyl) benzamide] | 22.8 nM
CC(C)COc1ncc(Oc2cc(F)c(C(=O)NS(=O)(=O)NCc3cccnc3)cc2Cl)cc1Cl [Preparation 22, 5-chloro-4-((5-chloro-6-isobutoxypyridin-3-yl)oxy)-2-fluoro-N-(N-(pyridin-3-ylmethyl)sulfamoyl) benzamide 2,2,2-trifluoroacetate] | 3580 nM
CN(C)S(=O)(=O)NC(=O)c1cc(Cl)c(Oc2ccc3ccncc3c2)cc1F [Preparation 73, 5-chloro-N-(N,N-dimethylsulfamoyl)-2-fluoro-4-(isoquinolin-7-yloxy)benzamide] | 20000 nM
CC(C)COc1ncc(Oc2cc(F)c(C(=O)NS(=O)(=O)NCc3ccccc3)cc2Cl)cc1Cl [Preparation 18, N-(N-benzyl-sulfamoyl)-5-chloro-4-((5-chloro-6-isobutoxy-pyridin-3-yl)oxy)-2-fluorobenzamide] | 4180 nM
CCCCN(CCCC)S(=O)(=O)NC(=O)c1cc(Cl)c(Oc2cnc(OCC(C)C)c(Cl)c2)cc1F [Preparation 13, 5-chloro-4-((5-chloro-6-isobutoxypyridin-3-yl)oxy)-N-(N,N-dibutylsulfamoyl)-2-fluorobenzamide] | 3640 nM
NS(=O)(=O)NC(=O)c1cc(Cl)c(COc2cnc(OCC(F)(F)C(F)F)c(Cl)c2)cc1F [Preparation 36, 5-chloro-4-(((5-chloro-6-(2,2,3,3-tetrafluoropropoxy)pyridin-3-yl)oxy)methyl)-2-fluoro-N-sulfamoylbenzamide] | 460 nM
CN(C)S(=O)(=O)NC(=O)c1cc(Cl)c(COc2cnc(OCC(F)(F)C(F)F)c(Cl)c2)cc1F [Preparation 39, 5-chloro-4-(((5-chloro-6-(2,2,3,3-tetrafluoro-propoxy)pyridin-3-yl)oxy)methyl)-N-(N,N-dimethyl-sulfamoyl)-2-fluoro-benzamide] | 216 nM
CC(C)COc1ncc(Oc2cc(F)c(C(=O)NS(=O)(=O)N3CCNCC3)cc2Cl)cc1Cl [Preparation 42, 5-chloro-4-((5-chloro-6-isobutoxypyridin-3-yl)oxy)-2-fluoro-N-(piperazin-1-ylsulfonyl)benzamide] | 856 nM
CC(C)Oc1ncc(Oc2cc(F)c(C(=O)NS(=O)(=O)N3CCC3)cc2C2(F)COC2)cc1Cl [Preparation 88] | 44 nM
O=C(NS(=O)(=O)N1CCC1)c1cc(Cl)c(COc2ccc(Cl)c(Cl)c2)cc1F [Preparation 99] | 51 nM
COc1ncccc1-c1cc(C(=O)NS(=O)(=O)N2CCC2)ccc1Oc1ccc(OC(F)(F)F)c(Cl)c1 [Preparation 97] | 52 nM
O=C(NS(=O)(=O)N1CCC1)c1cc(Cl)c(COc2cnc(OCC(F)(F)C(F)F)c(Cl)c2)cc1F [Preparation 101] | 68 nM
O=C(NS(=O)(=O)N1CCC1)c1cc(Cl)c(Oc2cnc(OCC(F)(F)F)c(Cl)c2)cc1F [Preparation 93] | 16 nM
O=C(NS(=O)(=O)NC1CCC1)c1cc(Cl)c(Oc2ccc(OC(F)(F)F)c(Cl)c2)cc1F [Preparation 45, 5-chloro-4-(3-chloro-4-(trifluoromethoxy)phenoxy)-N-(N-cyclobutylsulfamoyl)-2-fluorobenzamide] | 108 nM
CNS(=O)(=O)NC(=O)c1cc(Cl)c(COc2cnc(OC(C)C)c(Cl)c2)cc1F [Preparation 77] | 140 nM
Cc1cc2cc(Oc3cc(F)c(C(=O)NS(=O)(=O)N(C)C)cc3Cl)ccc2[nH]1 [Preparation 59, 5-chloro-N-(N,N-dimethylsulfamoyl)-2-fluoro-4-((2-methyl-1H-indol-5-yl)oxy) benzamide] | 5200 nM
O=C(NS(=O)(=O)N1CCC1)c1cc(Cl)c(COc2ccc(Cl)c(C(F)(F)F)c2)cc1F [Preparation 85] | 26 nM

Source: US10071957B2, “N-substituted benzamides and methods of use thereof” (GENENTECH, INC., priority 2012, dated 2018)
